In US20250092002A1, “FLUORINATED CATIONIC LIPIDS FOR USE IN LIPID NANOPARTICLES” (Acuitas Therapeutics, Inc., priority 2021, published 2025):
Marks after values point to notes of the source that are not given here. One block for each compound: values may come before it.

Columns and labels:
[1] = test system: luciferase expression in the liver; experiment: In vivo luciferase mRNA expression rodent model (liver luciferase after tail vein injection of mRNA-LNP); design: species or system mice; conditions: for Liver Luc (ng luc/g liver), determined at 0.3 mg/kg: 0.3 mg/kg (footnote *); for Liver Luc (ng luc/g liver), determined at 0.3 mg/kg / Liver Luc (ng luc/g liver), determined at 1.0 mg/kg / Liver Luc @ 0.5 mg/kg (ng luc/g liver): tail vein injection, liver 4 hours after administration; for efficacy toward activation of the Luciferase mRNA expression as compared with non-fluorinated analogue: 0.3 mg/kg and 1.0 mg/kg, versus I-5 analogue and I-11 analogue respectively; for Liver Luc @ 0.5 mg/kg (ng luc/g liver): 0.5 mg mRNA/kg
Method: Lipid nanoparticles were prepared and tested according to the general procedures described in PCT Pub. Nos. WO 2015/199952 and WO 2017/004143, the full disclosures of which are incorporated herein by reference. Briefly, cationic lipid, DSPC, cholesterol and PEG-lipid were solubilized in ethanol at a molar ratio of about 50:10:38.5:1.5 or about 47.5:10:40.7:1.8. Lipid nanoparticles (LNP) were prepared at a total lipid to mRNA weight ratio of approximately 10:1 to 40:1. The mRNA is diluted to 0.2 mg/mL in 10 to 50 mM citrate or acetate buffer, pH 4. Syringe pumps were used to mix the ethanolic lipid solution with the mRNA aqueous solution at a ratio of about 1:5 to 1:3 (vol/vol) with total flow rates above 15 mL/min. The ethanol was then removed and the external buffer replaced with PBS by dialysis. Finally, the lipid nanoparticles were filtered through a 0.2 µm pore sterile filter. Lipid nanoparticle particle size was approximately 55-95 nm diameter, and in some instances approximately 70-90 nm diameter as determined by quasi-elastic light scattering using a Malvern Zetasizer Nano ZS (Malvern, UK).
Studies were performed in 6-8 week old female C57BL/6 mice (Charles River) or 8-10 week old CD-1 (Harlan) mice (Charles River) according to guidelines established by an institutional animal care committee (ACC) and the Canadian Council on Animal Care (CCAC). Varying doses of mRNA-lipid nanoparticle were systemically administered by tail vein injection and animals euthanized at a specific time point (e.g., 4 hours) post-administration. Liver and spleen were collected in pre-weighed tubes, weights determined, immediately snap frozen in liquid nitrogen and stored at −80° C. until processing for analysis.
For liver, approximately 50 mg was dissected for analyses in a 2 mL FastPrep tubes (MP Biomedicals, Solon OH). ¼″ ceramic sphere (MP Biomedicals) is added to each tube and 500 μL of Glo Lysis Buffer—GLB (Promega, Madison WI) equilibrated to room temperature is added to liver tissue. Liver tissues were homogenized with the FastPrep24 instrument (MP Biomedicals) at 2×6.0 m/s for 15 seconds. Homogenate was incubated at room temperature for 5 minutes prior to a 1:4 dilution in GLB and assessed using SteadyGlo Luciferase assay system (Promega). Specifically, 50 μL of diluted tissue homogenate was reacted with 50 μL of SteadyGlo substrate, shaken for 10 seconds followed by 5 minute incubation and then quantitated using a CentroXS^3 LB 960 luminometer (Berthold Technologies, Germany). The amount of protein assayed was determined by using the BCA protein assay kit (Pierce, Rockford IL). Relative luminescence units (RLU) were then normalized to total μg protein assayed. To convert RLU to ng luciferase a standard curve was generated with QuantiLum Recombinant Luciferase (Promega).
The FLuc mRNA (L-6107 or L-7202) from Trilink Biotechnologies will express a luciferase protein, originally isolated from the firefly, Photimus pyralis. FLuc is commonly used in mammalian cell culture to measure both gene expression and cell viability. It emits bioluminescence in the presence of the substrate, luciferin. This capped and poly-adenylated mRNA was fully substituted with respect to uridine and/or cytidine nucleosides.
Representative compounds of the disclosure shown in Table 2 were formulated using the following molar ratio: 50% cationic lipid/10% distearoylphosphatidylcholine (DSPC)/38.5% Cholesterol/1.5% PEG lipid 2-[2-(ω-methoxy(polyethyleneglycol2000)ethoxy]-N,N-ditetradecylacetamide) or 47.5% cationic lipid/10% DSPC/40.7% Cholesterol/1.8% PEG lipid. Relative activity was determined by measuring luciferase expression in the liver 4 hours following administration via tail vein injection as described in Example 1. The activity was compared at a dose of 1.0 or 0.5 or 0.3 mg mRNA/kg and expressed as ng luciferase/g liver measured 4 hours after administration, as described in Example 1. Compound numbers in Table 2 refer to the compound numbers of Table 1. […]

[2] = Determination of pKa of formulated lipids (TNS fluorescence assay in lipid nanoparticles); assay type: physicochemical; conditions: probe 2-(p-toluidino)-6-napthalene sulfonic acid (TNS), 1 µM final, cationic lipid formulated in lipid nanoparticles (cationic lipid/DSPC/cholesterol/PEG-lipid 47.5/10/40.7/1.8 mol %), read-out: pKa
Method: As described elsewhere, the pKa of formulated cationic lipids is correlated with the effectiveness of LNPs for delivery of nucleic acids (see Jayaraman et al, Angewandte Chemie, International Edition (2012), 51(34), 8529-8533; Semple et al, Nature Biotechnology 28, 172-176 (2010)). The preferred range of pKa is ˜5 to ˜7. The pKa of each cationic lipid was determined in lipid nanoparticles using an assay based on fluorescence of 2-(p-toluidino)-6-napthalene sulfonic acid (TNS). Lipid nanoparticles comprising cationic lipid/DSPC/cholesterol/PEG-lipid (47.5/10/40.7/1.8 mol %) in PBS at a concentration of 0.4 mM total lipid were prepared using the in-line process as described in Example 1. TNS was prepared as a 100 μM stock solution in distilled water. Vesicles were diluted to 24 μM lipid in 2 mL of buffered solutions containing, 10 mM HEPES, 10 mM MES, 10 mM ammonium acetate, 130 mM NaCl, where the pH ranged from 2.5 to 11. An aliquot of the TNS solution was added to give a final concentration of 1 μM and following vortex mixing fluorescence intensity was measured at room temperature in a SLM Aminco Series 2 Luminescence Spectrophotometer using excitation and emission wavelengths of 321 nm and 445 nm. A sigmoidal best fit analysis was applied to the fluorescence data and the pKa was measured as the pH giving rise to half-maximal fluorescence intensity.

SMILES: CCCCC(CC)COC(=O)CCCCCCCCC(CCCCCCCCC(=O)OCC(CC)CCCC)N(CCCCN(C)C)C(=O)C(F)(F)C(F)(F)C(F)(F)C(F)(F)C(F)(F)C(F)(F)C(F)(F)F (stereo not drawn) [Compound I-5, BIS(2-ETHYLHEXYL) 10-(N-(4-(DIMETHYLAMINO)BUTYL)-2,2,3,3,4,4,5,5,6,6,7,7,8,8,8-PENTADECAFLUOROOCTANAMIDO)NONADECANEDIOATE]
- Liver Luc (ng luc/g liver), determined at 0.3 mg/kg [1]: 3645 ± 1347 ng luc/g liver
- efficacy toward activation of the Luciferase mRNA expression as compared with non-fluorinated analogue [1]: increased efficacy
- Liver Luc (ng luc/g liver), determined at 1.0 mg/kg [1]: 21585 ± 6204 ng luc/g liver
- pKa [2]: 5.92

SMILES: CCCCCCCCC(CCCCCC)COC(=O)CCCCCC(CCCCCC(=O)OCC(CCCCCC)CCCCCCCC)N(CCCCN(C)C)C(=O)C(F)(F)C(F)(F)C(F)(F)C(F)(F)C(F)(F)C(F)(F)C(F)(F)F (stereo not drawn) [Compound I-7, BIS(2-HEXYLDECYL) 7-(N-(4-(DIMETHYLAMINO)BUTYL)-2,2,3,3,4,4,5,5,6,6,7,7,8,8,8-PENTADECAFLUOROOCTANAMIDO)TRIDECANEDIOATE]
- Liver Luc @ 0.5 mg/kg (ng luc/g liver) [1]: 39 ± 14 ng luc/g liver
- pKa [2]: 6.08

SMILES: CCCCCCCCC(CCCCCC)COC(=O)CCCCCC(CCCCCC(=O)OCC(CCCCCC)CCCCCCCC)N(CCN1CCN(C)CC1)C(=O)C(F)(F)C(F)(F)C(F)(F)C(F)(F)C(F)(F)C(F)(F)C(F)(F)F (stereo not drawn) [Compound I-8, BIS(2-HEXYLDECYL) 7-(2,2,3,3,4,4,5,5,6,6,7,7,8,8,8-PENTADECAFLUORO-N-(2-(4-METHYLPIPERAZIN-1-YL)ETHYL)OCTANAMIDO)TRIDECANEDIOATE]
- Liver Luc @ 0.5 mg/kg (ng luc/g liver) [1]: 0 ng luc/g liver
- pKa [2]: 5.58

SMILES: CCCCCCCCC(CCCCCC)COC(=O)CCCCCC(CCCCCC(=O)OCC(CCCCCC)CCCCCCCC)N(CCCCCN(C)C)C(=O)C(F)(F)C(F)(F)C(F)(F)C(F)(F)C(F)(F)C(F)(F)C(F)(F)F (stereo not drawn) [Compound I-9, BIS(2-HEXYLDECYL) 7-(N-(5-(DIMETHYLAMINO)PENTYL)-2,2,3,3,4,4,5,5,6,6,7,7,8,8,8-PENTADECAFLUOROOCTANAMIDO)TRIDECANEDIOATE]
- Liver Luc @ 0.5 mg/kg (ng luc/g liver) [1]: 25 ± 16 ng luc/g liver
- pKa [2]: 6.32

SMILES: CCCCCCC(CCCC)COC(=O)CCCCCC(CCCCCC(=O)OCC(CCCC)CCCCCC)N(CCCCN(C)C)C(=O)C(F)(F)C(F)(F)C(F)(F)C(F)(F)C(F)(F)C(F)(F)C(F)(F)F (stereo not drawn) [Compound I-10, BIS(2-BUTYLOCTYL) 7-(N-(4-(DIMETHYLAMINO)BUTYL)-2,2,3,3,4,4,5,5,6,6,7,7,8,8,8-PENTADECAFLUOROOCTANAMIDO)TRIDECANEDIOATE]
- Liver Luc @ 0.5 mg/kg (ng luc/g liver) [1]: 62 ± 44 ng luc/g liver
- pKa [2]: 6.18

SMILES: CCCCCCC(CCCC)COC(=O)CCCCCC(CCCCCC(=O)OCC(CCCC)CCCCCC)N(CCCCCN(C)C)C(=O)C(F)(F)C(F)(F)C(F)(F)C(F)(F)C(F)(F)C(F)(F)C(F)(F)F (stereo not drawn) [Compound I-11, BIS(2-BUTYLOCTYL) 7-(N-(5-(DIMETHYLAMINO)PENTYL)-2,2,3,3,4,4,5,5,6,6,7,7,8,8,8-PENTADECAFLUOROOCTANAMIDO)TRIDECANEDIOATE]
- Liver Luc (ng luc/g liver), determined at 0.3 mg/kg [1]: 3411 ± 803* ng luc/g liver
- efficacy toward activation of the Luciferase mRNA expression as compared with non-fluorinated analogue [1]: increased efficacy
- Liver Luc (ng luc/g liver), determined at 1.0 mg/kg [1]: 45575 ± 11088 ng luc/g liver
- pKa [2]: 6.28

- pKa [2]: 6.22
SMILES: CCCCCCCCC(CCCCCC)COC(=O)CCCCCC(CCCCCC(=O)OCC(CCCCCC)CCCCCCCC)N(CCCN(C)C)C(=O)CC(F)(F)F (stereo not drawn) [Compound I-12, BIS(2-HEXYLDECYL) 7-(N-(3-(DIMETHYLAMINO)PROPYL)-3,3,3-TRIFLUOROPROPANAMIDO)TRIDECANEDIOATE]
- Liver Luc (ng luc/g liver), determined at 0.3 mg/kg [1]: 138 ± 64* ng luc/g liver
- Liver Luc (ng luc/g liver), determined at 1.0 mg/kg [1]: 559 ± 207 ng luc/g liver

- pKa [2]: 6.68
SMILES: CCCCCCCCC(CCCCCC)COC(=O)CCCCCC(CCCCCC(=O)OCC(CCCCCC)CCCCCCCC)N(CCCN(C)C)C(=O)CCCC(F)(F)F (stereo not drawn) [Compound I-13, BIS(2-HEXYLDECYL) 7-(N-(3-(DIMETHYLAMINO)PROPYL)-5,5,5-TRIFLUOROPENTANAMIDO)TRIDECANEDIOATE]
- Liver Luc @ 0.5 mg/kg (ng luc/g liver) [1]: 658 ± 262 ng luc/g liver
